One data set has as its system tumor growth. Briefly: Clinical trial: tumor growth in brain metastasis patients receiving xenon versus air controls. To be noted: patients receiving xenon as compared to air controls. Type of data set: in vivo, human. Here is the method: (§1) A clinical trial is conducted in 20 patients with brain metastasis who receive 2 Gy to 100 Gy fractionated over 2-8 weeks. 10 patients are treated with 10-20 liters of 30% xenon every other day during radiation exposure. An additional 10 patients are treated with similar radiation regimen and administered 10-20 liters of air every other day during radiation exposure. […] Furthermore, verbal memory, as measured by the Hopkins Verbal Learning Test-Revised (HVLT-R), Cognitive flexibility as measured with the Controlled Oral Word Association (COWA), Word Fluency has measured with the Controlled Oral Word Association (COWA), Working memory has measured with the Wechsler Adult Intelligence Scale—Digit Span, Processing speed has measured with the Wechsler Adult Intelligence Scale—Digit Symbol, Motor dexterity has measured with the Grooved Pegboard (GP), Functional assessment, as measured by the Functional Assessment of Cancer Therapy-Brain (FACT-Br), all improved in the xenon treated group.

In data set [1] the test system is patients with brain metastasis. In words: Clinical trial: cognitive function in brain metastasis patients under fractionated radiation, xenon versus air. Type of data set: in vivo, human. Conditions: vs air. How it is done: as §1
[2] abbreviates: 10-20 liters of 30% xenon every other day during radiation exposure.

For the molecule `[Xe]` [xenon], the “acceleration of tumor growth” value in the data set with tumor growth is recorded as “No acceleration of tumor growth”. In data set [1] (10-20 liters of 30% xenon every other day during radiation exposure (2 Gy to 100 Gy fractionated over 2-8 weeks), at 3, 8, 12, and 24 weeks), the “cognitive function as measured by HVLT-R Total Recall score (verbal learning and memory test)” value was “preservation in cognitive function”. Moreover, in data set [1] (setting [2]), the “Cognitive flexibility as measured with the Controlled Oral Word Association (COWA)” value was “improved”; the “Functional assessment, as measured by the Functional Assessment of Cancer Therapy-Brain (FACT-Br)” value was “improved”; the “Motor dexterity measured with the Grooved Pegboard (GP)” value is given as “improved”; the “Processing speed measured with the Wechsler Adult Intelligence Scale—Digit Symbol” value was “improved”. Also, in data set [1] (setting [2]), the “Word Fluency measured with the Controlled Oral Word Association (COWA)” value is listed as “improved”; the “Working memory measured with the Wechsler Adult Intelligence Scale—Digit Span” value is “improved”; the “verbal memory, as measured by the Hopkins Verbal Learning Test-Revised (HVLT-R)” value is recorded as “improved”.

Source of the values: US20170341980A1, “NOBLE GAS NEUROPROTECTION AND NEUROREGENERATION FROM TREATMENT RELATED NEUROTOXICITY” (NOBLIS THERAPEUTICS, INC., priority 2016, published 2017).
